Laboratory results from patent US8808715B1, “Methods and compositions for modulating keratinocyte function” (Georgia Regents Research Institute, Inc, priority 2004, dated 2014).

Assays:
[1] = test system: rapidly dividing keratinocytes; test: Assay of DNA synthesis ([3H]thymidine incorporation) in rapidly dividing keratinocytes; format: cell-based; conditions: for effect on DNA synthesis ([3H]thymidine incorporation into DNA): control (25 μM Ca2+) medium; for concentration of maximal inhibition of DNA synthesis / inhibition of DNA synthesis compared with egg-derived PG / lowest concentration at which inhibition of DNA synthesis was observed: liposomes; for inhibition of DNA synthesis compared with egg-derived PG / lowest concentration at which inhibition of DNA synthesis was observed: FIG. 20A; for inhibition of DNA synthesis, percent of control (in words) / concentration at which DNA synthesis was inhibited: FIG. 21B; for inhibition of DNA synthesis, percent of control (in words): PG versus PP headgroup species; for concentration at which DNA synthesis was inhibited: lowest tested 25 μg/mL, highest tested 100 μg/mL
Procedure: (§1) Keratinocytes were prepared from ICR CD-I outbred mice in accordance with a protocol approved by the Institutional Animal Care and Use Committee. Briefly, the skins were harvested and incubated overnight in 0.25% trypsin at 4° C. The epidermis and dermis were separated and basal keratinocytes scraped from the underside of the epidermis. The cells were collected by centrifugation and incubated overnight in an atmosphere of 95% air/5% carbon dioxide at 37° C. in plating medium as described in Dodd M E, Ristich V L, Ray S, Lober R M, Bollag W B (2005) Regulation of protein kinase D during differentiation and proliferation of primary mouse keratinocytes. J Invest Dermatol 125:294-306, incorporated herein by reference. The plating medium was replaced with serum-free keratinocyte medium (SFKM) also as in Dodd, et al., and the cells were refed every 1-2 days with fresh medium until use.
(§2) [^3H]Thymidine incorporation into DNA was determined as a measure of DNA synthesis as previously described by Griner, et al., above. Near-confluent keratinocyte cultures were incubated for 24 hours in SFKM containing the indicated additions. PG was added in the form of liposomes prepared by bath sonication of dried PG in SFKM to make a stock solution of 2 mg/mL. [^3H]Thymidine at a final concentration of 1 μCi/mL was then added to the cells for an additional 1-hour incubation. Reactions were terminated by washing with PBS- and macromolecules precipitated with ice-cold 5% trichloroacetic acid. Cells were solubilized in 0.3 M NaOH and the radioactivity incorporated into DNA quantified by liquid scintillation spectroscopy.
(§3) [^3H]Thymidine incorporation was used as a measure of DNA synthesis and was performed as described in Example 2. Liposomes containing PG and functional derivatives thereof were prepared by bath sonication as described in Example 2, with the exception that different concentrations of material were employed.

[2] = test system: slowly dividing keratinocytes; test: Assay of DNA synthesis ([3H]thymidine incorporation) in slowly proliferating keratinocytes; format: cell-based, mouse; conditions: liposomes, 24 hours; for effect on DNA synthesis ([3H]thymidine incorporation into DNA): keratinocytes with reduced proliferation; for lowest concentration at which stimulation of DNA synthesis was observed / stimulation of DNA synthesis compared with egg-derived PG: FIG. 20B
Procedure: Confluent keratinocytes were treated for 24 hours with the indicated concentrations of phosphatidylglycerol (PG), prepared via bath sonication of PG in serum-free keratinocyte medium. [^3H]Thymidine incorporation into DNA was then determined as above. [^3H]Thymidine incorporation into DNA under control conditions was 12,880±1,040 cpm/well. Values represent the means±SEM of 3 separate experiments performed in duplicate; *p<0.01, **p<0.001 versus the control value.
as §1, §2, §3

CCCCC/C=C\C/C=C\C/C=C\C/C=C\CCCC(=O)O[C@H](COC(=O)CCCCCCCCCCCCCCC)COP(=O)(O)OCC(O)CO (stereo partly drawn) [PAPG, palmitoyl-arachidonoyl-PG]
effect on DNA synthesis ([3H]thymidine incorporation into DNA) ([1]; 24 hours): inhibit DNA synthesis in a dose dependent manner | concentration of maximal inhibition of DNA synthesis ([1]; 24 hours): 100 µg/mL | inhibition of DNA synthesis compared with egg-derived PG ([1]; 24 hours): at least as strongly as egg-derived PG | lowest concentration at which inhibition of DNA synthesis was observed ([1]; 24 hours): 12.5 µg/mL | effect on DNA synthesis ([3H]thymidine incorporation into DNA) [2]: only mildly stimulatory

CCCCCCCCCCCCCCCC(=O)OCC(COP(=O)(O)OCC(O)CO)OC(=O)CCCCCCCCCCCCCCC (stereo not drawn) [DPPG, dipalmitoyl-PG]
lowest concentration at which stimulation of DNA synthesis was observed [2]: 50 µg/mL | stimulation of DNA synthesis compared with egg-derived PG [2]: approximately the same level as egg-derived PG

CCCCC/C=C\C/C=C\CCCCCCCC(=O)OC[C@H](COP(=O)(O)OCCC)OC(=O)CCCCCCC/C=C\C/C=C\CCCCC [DLPP, dilinoleoyl-PP]
inhibition of DNA synthesis, percent of control (in words) ([1]; 24 hours): not statistically significant | concentration at which DNA synthesis was inhibited [1]: 100 µg/mL

CCCCC/C=C\C/C=C\CCCCCCCC(=O)OC[C@H](COP(=O)(O)OCC(O)CO)OC(=O)CCCCCCC/C=C\C/C=C\CCCCC (stereo partly drawn) [DLPG, dilinoleoyl-PG]
effect on DNA synthesis ([3H]thymidine incorporation into DNA) ([1]; 24 hours): inhibit DNA synthesis in a dose dependent manner | concentration at which DNA synthesis was inhibited [1]: ≤ 25 µg/mL | concentration of maximal inhibition of DNA synthesis ([1]; 24 hours): 100 µg/mL | inhibition of DNA synthesis compared with egg-derived PG ([1]; 24 hours): at least as strongly as egg-derived PG | lowest concentration at which inhibition of DNA synthesis was observed ([1]; 24 hours): 6.25 µg/mL

CCCCCCCCCCCCCCCC(=O)OC[C@H](COP(=O)(O)OCCC)OC(=O)CCCCCCCCCCCCCCC [DPPP, dipalmitoyl-PP]
effect on DNA synthesis ([3H]thymidine incorporation into DNA) ([1]; 24 hours): did not affect DNA synthesis | inhibition of DNA synthesis, percent of control (in words) ([1]; 24 hours): lack of effect

OC[C@@H](O)[C@@H](O)[C@H](O)[C@@H](O)CO [sorbitol]
effect on DNA synthesis in presence of 125 μM Ca2+ ([1]; 24 hours, 125 μM Ca2+ medium): no significant effect | effect on DNA synthesis ([3H]thymidine incorporation into DNA) ([1]; 24 hours): no significant effect

CCCCCC(=O)OCC(COP(=O)(O)OCC(O)CO)OC(=O)CCCCC (stereo not drawn) [DHPG, dihexanoyl-PG]
effect on DNA synthesis ([3H]thymidine incorporation into DNA) [2]: only mildly stimulatory

CCCCCCCC/C=C\CCCCCCCC(=O)OC[C@H](COP(=O)(O)OCC(O)CO)OC(=O)CCCCCCC/C=C\CCCCCCCC (stereo partly drawn) [DOPG, dioleoyl-PG]
effect on DNA synthesis ([3H]thymidine incorporation into DNA) ([1]; 24 hours): no inhibition of DNA synthesis | concentration of maximal stimulation of DNA synthesis [2]: 100 µg/mL | lowest concentration at which stimulation of DNA synthesis was observed [2]: 12.5 µg/mL | stimulation of DNA synthesis compared with egg-derived PG [2]: more potently than egg-derived PG | effect on DNA synthesis ([3H]thymidine incorporation into DNA) [2]: potent stimulator of DNA synthesis

palmitoyl-linoleoyl-PG [PLPG]
effect on DNA synthesis ([3H]thymidine incorporation into DNA) ([1]; 24 hours): inhibit DNA synthesis in a dose dependent manner | concentration of maximal inhibition of DNA synthesis ([1]; 24 hours): 100 µg/mL | inhibition of DNA synthesis compared with egg-derived PG ([1]; 24 hours): at least as strongly as egg-derived PG | lowest concentration at which inhibition of DNA synthesis was observed ([1]; 24 hours): 50 µg/mL

CCCCCCCC/C=C\CCCCCCCC(=O)O[C@H](COC(=O)CCCCCCCCCCCCCCC)COP(=O)(O)OCC(O)CO (stereo partly drawn) [POPG, palmitoyl-oleoyl-PG]
effect on DNA synthesis ([3H]thymidine incorporation into DNA) ([1]; 24 hours): moderate inhibition of DNA synthesis | lowest concentration at which inhibition of DNA synthesis was observed ([1]; 24 hours): 100 µg/mL | effect on DNA synthesis ([3H]thymidine incorporation into DNA) [2]: only mildly stimulatory

CCCCCCCC/C=C\CCCCCCCC(=O)OC[C@H](COP(=O)(O)OCCC)OC(=O)CCCCCCC/C=C\CCCCCCCC [DOPP, dioleoyl-phosphatidylpropanol]
effect on DNA synthesis ([3H]thymidine incorporation into DNA) ([1]; 24 hours): no impact on DNA synthesis | inhibition of DNA synthesis, percent of control (in words) ([1]; 24 hours): lack of effect
